Like-named read-outs stand apart in the source and are kept apart here.

One assay deals with T1, H^+ /K^+ ATPase (Oryctolagus cuniculus, UniProt P27112).
T1 construct: Rabbit gastric glands are isolated from gastric mucosa from the corpus region of the stomach; from tissue; host or cells: isolated gastric glands from rabbit gastric mucosa, corpus region of the stomach
Briefly: inhibition of 14C-aminopyrine accumulation in rabbit isolated gastric glands stimulated by DBcAMP or high K+ (H+/K+ ATPase inhibition). The class given is cell-based. The following applies: 10^-4 M, 14C-aminopyrine uptake. The procedure:
Compounds of formula I were also tested for anti-secretory activity by their ability to inhibit the highly specific proton transporting enzyme H^+ /K^+ ATPase.
Potential H^+ /K^+ ATPase inhibitors are evaluated by a technique involving the measurement of aminopyrine accumulation in rabbit isolated gastric glands. Aminopyrine, which is a weak base, accumulates in acid-secreting cells; therefore, uptake of aminopyrine is increased by secretagogues and an inhibitor of acid secretion will reduce the response to one or more secretagogues depending upon its site of action. Compounds which reduce the response to dibutyryl cyclic adenosine monophosphate (DBcAMP) stimulation are assumed to have an intracellular site of action, and those which reduce the response to both DBcAMP and high potassium ion concentration (K^+) are thought to have an intracellular site of action at the secretory surface of the parietal cell, involving the highly specific proton - transporting enzyme, H^+ /K^+ ATPase. The following test procedure is used:
Rabbit gastric glands are isolated from gastric mucosa from the corpus region of the stomach by a method based on one described by Berglindh T., Obrink K. J., Acta Physiol. Scand. 96, 150-159 (1976). Measurement of aminopyrine uptake is carried out using a modification of the method described by Berglindh T., Hellander H. F., Obrink K. J. (ibid, 97, 401-414, 1976).
Compounds are tested at a concentration of 10^-4 M, initially, and in some cases at lower concentrations, for their ability to inhibit ^14 C-aminopyrine uptake in gastric glands, stimulated by DBcAMP and high K^+ respectively. Results are expressed as the % inhibition of the maximum response to the secretagogue induced by the test compound. An inhibitor of H^+ /K^+ ATPase would be expected to reduce the response to both secretagogues.

Assay [1] is described as follows: stress-induced erosion test (Senay and Levine), anti-ulcer activity. The class given is in vivo. The procedure:
Anti-ulcer activity was determined by the stress-induced erosion test of Senay and Levine, Proc. Soc. Exp. Biol. Med., 124, 1221-3 (1967).

The nature of assay [2]: anti-secretory test of Shay et al (as exemplified by Beattie et al). The class given is in vivo. The following applies: read-out: Anti-Secretory (Shay et al) % Change in volume.
Setting [3] is: DBcAMP stimulation, read-out: % Inhibition to Stimulation by DBcAMP at 10^-4.
Where [4] appears, read: high K+ stimulation, read-out: % Inhibition to Stimulation by K^+ at 10^-4.

T1 sequence (P27112 whole entry): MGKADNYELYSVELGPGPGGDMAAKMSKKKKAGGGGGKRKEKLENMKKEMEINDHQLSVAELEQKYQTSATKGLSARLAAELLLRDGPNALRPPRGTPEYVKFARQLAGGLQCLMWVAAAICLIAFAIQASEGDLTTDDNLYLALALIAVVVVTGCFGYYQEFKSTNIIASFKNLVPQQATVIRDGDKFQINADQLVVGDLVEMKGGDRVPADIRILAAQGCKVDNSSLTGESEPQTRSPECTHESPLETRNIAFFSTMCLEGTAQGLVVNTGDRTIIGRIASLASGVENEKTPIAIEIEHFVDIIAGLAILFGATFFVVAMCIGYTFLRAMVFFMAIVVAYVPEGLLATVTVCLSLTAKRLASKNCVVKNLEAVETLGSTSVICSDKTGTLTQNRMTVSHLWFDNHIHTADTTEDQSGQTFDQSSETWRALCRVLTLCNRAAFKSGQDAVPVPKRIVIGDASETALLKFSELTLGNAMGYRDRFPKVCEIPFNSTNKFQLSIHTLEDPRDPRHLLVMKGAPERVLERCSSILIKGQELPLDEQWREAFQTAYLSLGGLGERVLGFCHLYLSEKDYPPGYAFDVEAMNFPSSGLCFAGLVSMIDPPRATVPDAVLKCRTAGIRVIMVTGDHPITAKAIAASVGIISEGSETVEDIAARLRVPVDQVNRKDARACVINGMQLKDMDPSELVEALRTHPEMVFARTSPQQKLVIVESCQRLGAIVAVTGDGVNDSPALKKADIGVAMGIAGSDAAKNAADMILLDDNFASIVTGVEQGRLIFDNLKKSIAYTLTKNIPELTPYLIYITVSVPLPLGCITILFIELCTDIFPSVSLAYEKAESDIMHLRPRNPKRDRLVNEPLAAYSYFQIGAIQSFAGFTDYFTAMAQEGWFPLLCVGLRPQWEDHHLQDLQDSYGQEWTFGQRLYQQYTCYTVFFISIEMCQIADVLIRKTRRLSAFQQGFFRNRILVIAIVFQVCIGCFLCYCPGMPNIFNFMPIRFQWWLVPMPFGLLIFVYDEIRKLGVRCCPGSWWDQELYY
T1 sequence (P18597 whole entry partner): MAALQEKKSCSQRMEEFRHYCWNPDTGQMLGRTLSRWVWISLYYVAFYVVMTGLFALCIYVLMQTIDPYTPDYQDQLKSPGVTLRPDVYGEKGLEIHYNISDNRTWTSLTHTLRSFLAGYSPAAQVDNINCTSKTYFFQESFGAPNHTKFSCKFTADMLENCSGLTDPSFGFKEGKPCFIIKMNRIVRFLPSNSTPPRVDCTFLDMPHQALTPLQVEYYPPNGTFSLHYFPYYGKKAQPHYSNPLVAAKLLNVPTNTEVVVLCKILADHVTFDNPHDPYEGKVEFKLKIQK

On to `c1ccc(-c2cccc(CSc3nc4cccc5c4n3CCC5)n2)cc1` [Example 6, 5,6-Dihydro-2-(2-(6-phenylpyridyl)methylthio)-[4H]-imidazo-[4,5,1-ij]quinoline], for which the inhibition at 100 µM was determined as 36% at H^+ /K^+ ATPase (setting [3]) and 182% at H^+ /K^+ ATPase (setting [4]). The compound further displayed an inhibition in vivo at 100 mg/kg in assay [1] of 58%.

For `Cc1cnc(C[S+]([O-])c2nc3cccc4c3n2CCC4)c(C)c1` (stereo not drawn) [Example 8], the inhibition at 100 µM on H^+ /K^+ ATPase (setting [3]) was 48%.

With `COc1cc2c3c(c1)nc(SCc1ccc4ccccc4n1)n3CCC2` [Example 19, 5,6-Dihydro-8-methoxy-2-(quinolin-2-ylmethylthio)-4H-imidazo-[4,5,1-ij]quinoline], the inhibition at 100 µM on H^+ /K^+ ATPase (setting [3]) turned out to be 70%; on H^+ /K^+ ATPase (setting [4]), 124%.

With `C1=Cc2cccc3nc(SCc4ccccn4)n(c23)C1` [Example 4, 2-(2-Pyridylmethylthio)-4[H]-imidazo-[4,5,1-ij]quinoline], the inhibition at 100 µM at H^+ /K^+ ATPase (setting [3]) was found to be 16.7%; on H^+ /K^+ ATPase (setting [4]) it was 35.5%.

As for `[O-][S+](Cc1ccccn1)c1nc2cccc3c2n1CCC3` (stereo not drawn) [Example 2, 2-(2-Pyridylmethylsulphinyl)-5,6-dihydro-4H-imidazo-[4,5,1-ij]quinoline], the inhibition at 100 µM on H^+ /K^+ ATPase (setting [3]) was 97%; on H^+ /K^+ ATPase (setting [4]), 65%. Also, in assay [1], 100 mg/kg produced 60% inhibition in vivo.

With `c1cc2c3c(c1)nc(SCc1ccncc1)n3CCC2` [Example 21, 5,6-Dihydro-2-(4-pyridylmethylthio)-4H-imidazo[4,5,1-ij]-quinoline], at H^+ /K^+ ATPase (setting [3]), the inhibition at 100 µM was determined as 66%.

Turning to `c1ccc(-c2nc(CSc3nc4cccc5c4n3CCC5)cs2)cc1` [Example 9, 5,6-Dihydro-2-[(2-phenylthiazol-4-yl)methylthio]-4H-imidazo[4,5,1-ij]quinoline], the inhibition at 100 µM turned out to be 75% at H^+ /K^+ ATPase (setting [3]) and 122% at H^+ /K^+ ATPase (setting [4]).

For `Cc1cnc(CSc2nc3cccc4c3n2CCC4)c(C)c1` [Example 7, 5,6-Dihydro-2-(2-(3,5-dimethylpyridyl)methylthio)-[4H]-imidazo-[4,5,1-ij]quinoline], the inhibition at 100 µM at H^+ /K^+ ATPase (setting [3]) came out at 70%; at H^+ /K^+ ATPase (setting [4]), 74%.

Turning to `COc1cc2c3c(c1)nc(SCc1ccncc1)n3CCC2` [Example 20, 5,6-Dihydro-8-methoxy-2-(4-pyridylmethylthio)-4H-imidazo[4,5,1-ij]quinoline], the inhibition at 100 µM on H^+ /K^+ ATPase (setting [3]) is 68%.

`Cc1cccnc1C[S+]([O-])c1nc2cccc3c2n1CCC3` (stereo not drawn) [Example 5, 5,6-Dihydro-2-(2-(3-methylpyridyl)methylsulphinyl)-[4H]-imidazo-[4,5,1-ij]quinoline]: the inhibition at 100 µM at H^+ /K^+ ATPase (setting [3]) was 66%.

Consider `c1ccc2nc(CSc3nc4cccc5c4n3CCC5)ccc2c1` [Example 11, 5,6-dihydro-2-(quinolin-2-ylmethylthio)-4H-imidazo[4,5,1-ij]quinoline], for which the inhibition at 100 µM on H^+ /K^+ ATPase (setting [3]) is 62%; at H^+ /K^+ ATPase (setting [4]) it was 147%. In assay [2], the change in vivo at 30 mg/kg was found to be 22%.

With `c1ccc(CSc2nc3cccc4c3n2CCC4)nc1` [Example 1, 5,6-Dihydro-2-(2-pyridylmethylthio)-4H-imidazo-[4,5,1-ij]-quinoline], the inhibition at 100 µM on H^+ /K^+ ATPase (setting [3]) came out at 34%. Besides, testing at 100 mg/kg in assay [1] gave an inhibition in vivo of 69%.

`Cc1cccnc1CSc1nc2cccc3c2n1CCC3` [Example 3, 5,6-Dihydro-2-(2-(3-methylpyridyl)methylthio)-4-[H]-imidazo-[4,5,1-ij]quinoline]: at H^+ /K^+ ATPase (setting [4]), the inhibition at 100 µM was -109%. This compound displayed an inhibition in vivo at 100 mg/kg in assay [1] of 68%.

In the case of `COc1cc2c3c(c1)nc(SCc1cccc(-c4ccccc4)n1)n3CCC2` [Example 10B, 5,6-Dihydro-8-methoxy-2-[(6-phenylpyridin-2-yl)-methylthio]-4H-imidazo[4,5,1-ij]quinoline], the inhibition at 100 µM on H^+ /K^+ ATPase (setting [3]) is 98%; on H^+ /K^+ ATPase (setting [4]) it was 136%.

Usually inhibition stands for the change of the read-out against control, counted positive when it falls. One may read the inhibition in vivo as the percentage by which the read-out fell short of the control.
